Measured values: PMC9865890, “N-Derivatives of (Z)-Methyl 3-(4-Oxo-2-thioxothiazolidin-5-ylidene)methyl)-1H-indole-2-carboxylates as Antimicrobial Agents—In Silico and In Vitro Evaluation” (Pharmaceuticals, 2023)
Values after ≈ are worked out from the molar mass of the structure shown. Read-outs that look alike come from different tables or passages of the source. One block for each compound: values may come before it.

What was measured:
Type in all cases: cell-based
[1] = system: Penicillium verrucosum var. cyclopium (food isolate); experiment: Antifungal bioassay (MIC/MFC)
Procedure: For the antifungal bioassays, six fungi were used: Aspergillus niger (ATCC 6275), Aspergillus fumigatus (ATCC 1022), Aspergillus versicolor (ATCC 11730), Penicillium funiculosum (ATCC 36839), Trichoderma viride (IAM 5061), and Penicillium verrucosum var. cyclopium (food isolate). The organisms were obtained from the Mycological Laboratory, Department of Plant Physiology, Institute for Biological Research “Siniša Stankovic”, Belgrade, Serbia. All experiments were performed in duplicate.

P. ochrochloron = experiment: Antifungal bioassay (MIC/MFC); settings: Penicillium ochrochloron; for MFC: P.o. (P. ochrochloron); for MIC: P.o. (P. ochrochloron; text: P. ochramensis), read-out: MIC
Procedure: (§1) For the antifungal bioassays, six fungi were used: […] The organisms were obtained from the Mycological Laboratory, Department of Plant Physiology, Institute for Biological Research “Siniša Stankovic”, Belgrade, Serbia. All experiments were performed in duplicate.

[2] = system: Aspergillus niger (ATCC 6275); experiment: Antifungal bioassay (MIC/MFC); settings: ATCC6275, A.n. (A. niger)
Procedure: as §1

[3] = system: Aspergillus fumigatus (ATCC 1022); experiment: Antifungal bioassay (MIC/MFC); settings: ATCC1022, A.f. (A. fumigatus)
Procedure: as §1

[4] = system: Trichoderma viride (IAM 5061); experiment: Antifungal bioassay (MIC/MFC); settings: Trichoderma viride, IAM5061, T.v. (T. viride); for MIC: read-out: MIC
Procedure: as §1

A. ochraceus = experiment: Antifungal bioassay (MIC/MFC); settings: Aspergillus ochraceus, A.o. (A. ochraceus); for MIC: read-out: MIC
Procedure: as §1

[5] = system: Penicillium funiculosum (ATCC 36839); experiment: Antifungal bioassay (MIC/MFC); settings: Talaromyces funiculosus, ATCC36839; P.f. (P. funiculosum)
Procedure: as §1

[6] = system: Aspergillus versicolor (ATCC 11730); experiment: Antifungal bioassay (MIC/MFC); settings: ATCC11730, A.v. (A. versicolor)
Procedure: as §1

[7] = system: Bacillus cereus (clinical isolate); experiment: Antibacterial microdilution (MIC/MBC); settings: Bacillus cereus, B.c. (B. cereus); for MIC: read-out: MIC
Procedure: (§2) The synthesized compounds (Table 1) were evaluated for their antibacterial activity against a panel of eight species using a microdilution method with ampicillin and streptomycin as reference drugs. […] The order of activity can be presented as: 8 > 11 > 2 > 1 > 12 > 3 > 17 > 7 > 5 > 13 > 14 > 16 > 9 > 4 = 6 > 15 > 10. […] Cloacae. […] The most sensitive bacteria appeared to be En. cloacae, while E. coli was the most resistant one, followed by M. flavus.
(§3) The following Gram-negative bacteria: Escherichia coli (ATCC 35210), Enterobacter cloacae (clinical isolate), Salmonella typhimurium (ATCC 13311), as well as Gram-positive bacteria: Listeria monocytogenes (NCTC 7973), Bacillus cereus (clinical isolate), and Staphylococcus aureus (ATCC 6538) were used. The organisms were obtained from the Mycological Laboratory, Department of Plant Physiology, Institute for Biological Research “Siniša Stankovic”, Belgrade, Serbia. The minimum inhibitory (MIC) and minimum bactericidal (MBC) concentrations were determined by the modified microdilution method, as previously reported.

[8] = system: Listeria monocytogenes (NCTC 7973); experiment: Antibacterial microdilution (MIC/MBC); settings: L.m. (L. monocytogenes)
Procedure: as §2, §3

[9] = system: Enterobacter cloacae (clinical isolate); experiment: Antibacterial microdilution (MIC/MBC); settings: En.cl (En. cloacae)
Procedure: as §2, §3

M. flavus = experiment: Antibacterial microdilution (MIC/MBC); settings: Micrococcus flavus; M.f. (M. flavus)
Procedure: as §2, §3

[10] = system: Escherichia coli (ATCC 35210); experiment: Antibacterial microdilution (MIC/MBC); settings: Escherichia coli, ATCC35210, E. coli; for MIC: read-out: MIC
Procedure: as §2, §3

[11] = system: Salmonella typhimurium (ATCC 13311); experiment: Antibacterial microdilution (MIC/MBC); settings: Salmonella enterica, S.t. (S. typhimurium); for MIC: read-out: MIC
Procedure: as §2, §3

[12] = system: Staphylococcus aureus (ATCC 6538); experiment: Antibacterial microdilution (MIC/MBC); settings: Staphylococcus aureus, ATCC6538, S.a. (S. aureus); for MIC: read-out: MIC
Procedure: as §2, §3

P. aeruginosa = experiment: Antibacterial microdilution (MIC/MBC); settings: Pseudomonas aeruginosa, P.a. (P. aeruginosa); for MIC: read-out: MIC
Procedure: as §2, §3

[13] = Listeria monocytogenes, NCTC7973
[14] = Listeria monocytogenes, NCTC7973, read-out: MIC
[15] = Enterobacter cloacae, read-out: MIC

Compound: c1ccc(-c2ccc(C(c3ccccc3)n3ccnc3)cc2)cc1 (stereo not drawn) [Bifonazole, reference compound]
MFC ([1]; P.v.c. (P. cyclpoium var verucosum), read-out: MFC): 200 ± 10 µg/mL (≈ 644 µM) | MIC ([1]; P.v.c. (P. cyclpoium var verucosum), read-out: MIC): 100 ± 9 µg/mL (≈ 322 µM) | MFC (P. ochrochloron): 250 ± 50 µg/mL (≈ 805 µM) | MIC (P. ochrochloron): 200 ± 10 µg/mL (≈ 644 µM) | MFC [2]: 200 ± 10 µg/mL (≈ 644 µM) | MIC [2]: 150 ± 50 µg/mL (≈ 483 µM) | MFC [3]: 200 ± 10 µg/mL (≈ 644 µM) | MIC [3]: 150 ± 50 µg/mL (≈ 483 µM) | MFC [4]: 200 ± 10 µg/mL (≈ 644 µM) | MIC [4]: 150 ± 50 µg/mL (≈ 483 µM) | MFC (A. ochraceus): 200 ± 10 µg/mL (≈ 644 µM) | MIC (A. ochraceus): 150 ± 50 µg/mL (≈ 483 µM) | MFC [5]: 250 ± 50 µg/mL (≈ 805 µM) | MIC [5]: 200 ± 10 µg/mL (≈ 644 µM) | MFC [6]: 200 ± 10 µg/mL (≈ 644 µM) | MIC [6]: 100 ± 2 µg/mL (≈ 322 µM)

Compound: COC(=O)c1[nH]c2ccc(F)cc2c1/C=C1\SC(=S)N(C(C(=O)O)C(C)C)C1=O (stereo not drawn) [Compound 8, (Z)-2-(5-((5-fluoro-2-(methoxycarbonyl)-1H-indol-3-yl)methylene)-4-oxo-2-thioxothiazolidin-3-yl)-3-methylbutanoic acid]
MBC [7]: 60 ± 6 µg/mL (≈ 137 µM) | MIC [7]: 30 ± 10 µg/mL (≈ 68.7 µM) | MIC [8]: 15 ± 1 µg/mL (≈ 34.4 µM) | MBC [8, 13]: 30 ± 10 µg/mL (≈ 68.7 µM) | MIC [8, 14]: 15 µg/mL (≈ 34.4 µM) | MIC [9]: 4 ± 5 µg/mL (≈ 9.16 µM) | MBC ([9]; Enterobacter cloacae): 8 ± 0.6 µg/mL (≈ 18.3 µM) | MIC [9, 15]: 4 µg/mL (≈ 9.16 µM) | MBC (M. flavus): 60 ± 6 µg/mL (≈ 137 µM) | MIC (M. flavus): 30 ± 10 µg/mL (≈ 68.7 µM) | MBC [10]: 15 ± 9 µg/mL (≈ 34.4 µM) | MIC [10]: 8 ± 1 µg/mL (≈ 18.3 µM) | MBC [11]: 15 ± 9 µg/mL (≈ 34.4 µM) | MIC [11]: 8 ± 9 µg/mL (≈ 18.3 µM) | MBC [12]: 60 ± 6 µg/mL (≈ 137 µM) | MIC [12]: 30 ± 10 µg/mL (≈ 68.7 µM) | MBC (P. aeruginosa): 8 ± 0.6 µg/mL (≈ 18.3 µM) | MIC (P. aeruginosa): 4 ± 5 µg/mL (≈ 9.16 µM) | MFC [1]: 120 ± 40 µg/mL (≈ 275 µM) | MIC [1]: 60 ± 6 µg/mL (≈ 137 µM) | MFC (P. ochrochloron): 30 ± 10 µg/mL (≈ 68.7 µM) | MIC (P. ochrochloron): 15 ± 3 µg/mL (≈ 34.4 µM) | MFC [2]: 30 ± 10 µg/mL (≈ 68.7 µM) | MIC [2]: 15 ± 3 µg/mL (≈ 34.4 µM) | MFC [3]: 120 ± 40 µg/mL (≈ 275 µM) | MIC [3]: 60 ± 6 µg/mL (≈ 137 µM) | MFC (A. ochraceus): 15 ± 3 µg/mL (≈ 34.4 µM) | MIC (A. ochraceus): 8 ± 0.6 µg/mL (≈ 18.3 µM) | MFC [5]: 30 ± 10 µg/mL (≈ 68.7 µM) | MIC [5]: 15 ± 3 µg/mL (≈ 34.4 µM) | MFC [6]: 30 ± 10 µg/mL (≈ 68.7 µM) | MIC [6]: 15 ± 3 µg/mL (≈ 34.4 µM)

Compound: CC(=O)N1CCN(c2ccc(OCC3COC(Cn4ccnc4)(c4ccc(Cl)cc4Cl)O3)cc2)CC1 (stereo not drawn) [Ketoconazole, reference compound]
MFC [1]: 300 ± 10 µg/mL (≈ 565 µM) | MIC [1]: 200 ± 10 µg/mL (≈ 376 µM) | MFC (P. ochrochloron): 3500 ± 30 µg/mL (≈ 6590 µM) | MIC (P. ochrochloron): 2500 ± 300 µg/mL (≈ 4700 µM) | MFC [2]: 500 ± 4 µg/mL (≈ 941 µM) | MIC [2]: 200 ± 10 µg/mL (≈ 376 µM) | MFC [3]: 500 ± 1 µg/mL (≈ 941 µM) | MIC [3]: 200 ± 10 µg/mL (≈ 376 µM) | MFC [4]: 1500 ± 90 µg/mL (≈ 2820 µM) | MIC [4]: 1000 ± 100 µg/mL (≈ 1880 µM) | MFC (A. ochraceus): 500 ± 6 µg/mL (≈ 941 µM) | MIC (A. ochraceus): 250 ± 50 µg/mL (≈ 470 µM) | MFC [5]: 500 ± 3 µg/mL (≈ 941 µM) | MIC [5]: 200 ± 10 µg/mL (≈ 376 µM) | MFC [6]: 500 ± 2 µg/mL (≈ 941 µM) | MIC [6]: 200 ± 10 µg/mL (≈ 376 µM)

MIC [7]: 1.5 ± 0.2 µg/mL (≈ 2.58 µM) | MIC [8, 14]: 150 ± 30 µg/mL (≈ 258 µM) | MIC [9, 15]: 200 ± 5 µg/mL (≈ 344 µM) | MIC (M. flavus): 200 µg/mL (≈ 344 µM) | MIC [10]: 100 ± 50 µg/mL (≈ 172 µM) | MIC [11]: 100 ± 50 µg/mL (≈ 172 µM) | MIC [12]: 100 µg/mL (≈ 172 µM) | MIC (P. aeruginosa): 100 ± 50 µg/mL (≈ 172 µM)
Compound: [H]/N=C(/N)N[C@H]1[C@H](O)[C@@H](O)[C@H](O[C@@H]2O[C@@H](C)[C@](O)(C=O)[C@H]2O[C@@H]2O[C@@H](CO)[C@H](O)[C@@H](O)[C@@H]2NC)[C@@H](N/C(N)=N\[H])[C@@H]1O [Streptomycin, reference compound]
MBC [7]: 3 ± 0.5 µg/mL (≈ 5.16 µM) | MBC [8, 13]: 300 ± 30 µg/mL (≈ 516 µM) | MBC ([9]; Enterobacter cloacae): 300 ± 30 µg/mL (≈ 516 µM) | MBC (M. flavus): 300 ± 30 µg/mL (≈ 516 µM) | MBC [10]: 200 µg/mL (≈ 344 µM) | MBC [11]: 200 ± 9 µg/mL (≈ 344 µM) | MBC [12]: 200 µg/mL (≈ 344 µM) | MBC (P. aeruginosa): 200 µg/mL (≈ 344 µM)

MIC [7]: 6 ± 3 µg/mL (≈ 17.2 µM) | MIC [8, 14]: 150 ± 30 µg/mL (≈ 429 µM) | MIC [9, 15]: 250 ± 90 µg/mL (≈ 715 µM) | MIC (M. flavus): 250 ± 90 µg/mL (≈ 715 µM) | MIC [10]: 100 ± 50 µg/mL (≈ 286 µM) | MIC [11]: 150 ± 30 µg/mL (≈ 429 µM) | MIC [12]: 100 ± 50 µg/mL (≈ 286 µM) | MIC (P. aeruginosa): 300 ± 30 µg/mL (≈ 859 µM)
Compound: CC1(C)S[C@@H]2[C@H](NC(=O)[C@H](N)c3ccccc3)C(=O)N2[C@H]1C(=O)O [Ampicillin, reference compound]
MBC [7]: 25 µg/mL (≈ 71.5 µM) | MBC [8, 13]: 300 ± 30 µg/mL (≈ 859 µM) | MBC ([9]; Enterobacter cloacae): 500 ± 100 µg/mL (≈ 1430 µM) | MBC (M. flavus): 500 ± 100 µg/mL (≈ 1430 µM) | MBC [10]: 200 µg/mL (≈ 572 µM) | MBC [11]: 200 ± 9 µg/mL (≈ 572 µM) | MBC [12]: 150 ± 50 µg/mL (≈ 429 µM) | MBC (P. aeruginosa): 500 ± 100 µg/mL (≈ 1430 µM)
